Reference: patent US10196685B2, “Methods and systems for delivering process gases to critical process applications” (RASIRC, INC., priority 2014, dated 2019)
Where “and” joins values, the source holds several entries; their conditions need not be identical. Identical values can stand only once. Like-named read-outs stand apart in the source and are kept apart here.

Key:
E. coli [1] = conditions: 1.7×10^7 cfu E. coli per spot; gas-phase H2O2 505 ppm, H2O 2122 ppm, 60 minutes, 25° C.
Excerpt: The CDA gas pressure was maintained at 25 psig with the pressure regulator. A 0.01 micron filter removed particulates from the gas stream. The MFCs controlled the flow of the carrier gas streams and the dilution gas stream. […] The water temperature was used to control the output of the humidifier. The valves (V-1, V-2, and V-3) were used to send either the dry CDA gas stream, the RHS gas stream, and/or SGD gas stream through the furnace or out to vent. […] TC-3 and TC-4 were used to measure the gas temperature downstream of the SGD. The furnace was used to keep the bacterial samples at temperature to prevent condensation. TC-5 was used to measure the temperature in the quartz furnace. TC-6 was used to measure the gas temperature downstream of the furnace. A pressure gauge (PG-1) was used to monitor the pressure in the furnace. A Teledyne Prototype Analyzer was used to determine stability of the peroxide gas and its temperature was kept at 120° C. […] The boxed sections show the individual heat traced control zones for this experiment.
(§1) The initial test manifold was set to the following temperatures: • Zone 1=72° C. (Outlet temperature of SGD) • Zone 3=90° C.
The dilution gas flow rate was set to 5 slm, the RHS carrier gas to 180 sccm, and the SGD carrier gas flow to 1 slm. The RHS was then set to a 35° C. dew point, and the SGD to 30° C., running both gas streams to vent. […]

bovine genomic DNA = conditions: H2O2 505 ppm, 5 hours; for Average Decrease %: three replicates
Procedure: as §1
The dilution gas flow rate was set to 5 slm, the RHS carrier gas to 180 sccm, and the SGD carrier gas flow to 1 slm. The RHS was then set to a 35° C. dew point, and the SGD to 30° C., running both gas streams to vent. The furnace and the heat-traced line temperatures were adjusted to achieve the desired gas temperatures. The SGD and RHS systems were allowed to stabilize. Samples were treated and processed as described in the following Examples.
A PCR plate to be used for quantifying amplifiable DNA was prepared with three replicates at each target input level (i.e., ranging from 0 ng to 1,000 ng). In each instance, measured aliquots of an aqueous solution of bovine genomic DNA were added to individual wells of the plate, and then dried. […] The chamber was initially purged for 15 minutes with CDA. […] Finally, the chamber was purged for an additional 15 minutes with CDA. Each well containing treated sample next received an aliquot of liquid reagents needed to carry out PCR amplification reactions. These reagents included: a pair of unlabeled DNA primers capable of amplifying the template; nucleotide triphosphates; buffer and salts; a dual-labeled hydrolysis probe specific for the DNA amplification product; and a thermostable DNA polymerase having 5′-3′ exonuclease activity. Amplification reactions were carried out using procedures familiar to those of ordinary skill in the art, and the appearance of fluorescent signals monitored as a function of time in a real-time format.

bacterial samples = conditions: visible mist or fog, droplets condensed onto the sample
S. epi = tested on: S. epi
Procedure: (§2) A 0.01 micron filter removed particulates from the gas stream. […] The water temperature was used to control the output of the humidifier. […] The furnace was used to keep the bacterial samples at temperature to prevent condensation. […] The boxed sections show the individual heat traced control zones for this experiment.
as §1

E. coli [2] = tested on: E. coli
Procedure: as §2, §1

## OO [hydrogen peroxide gas, hydrogen peroxide]
E. coli [1]
  Growth on tryptic soy agar plates after H202 treatment (bacterial slides): No Growth
Bovine genomic DNA; Input 1 ng DNA, 25° C.
  Decrease %: 100%
  Remaining %: 0%
  Average Decrease %: 100.00%
Bovine genomic DNA; Input 1 ng DNA, H2O 2122 ppm, 25° C.
  Calculated ng After Treatment: 0 ng
Bovine genomic DNA; Input 10 ng DNA, 25° C.
  Decrease %: 98.55% and 99.28% and 94.5%
  Average Decrease %: 97.44%
Bovine genomic DNA; Input 100 ng DNA, 25° C.
  Decrease %: 99.19% and 99.92% and 99.978%
  Average Decrease %: 99.70%
Bovine genomic DNA; Input 1000 ng DNA, 25° C.
  Decrease %: 99.9957% and 99.9953% and 99.967%
  Average Decrease %: 99.99%
Bovine genomic DNA; sample containing the greatest amount of starting material
  Reduction of amplifiable DNA: about 4 logs
Bovine genomic DNA; sample containing the lowest amount of starting material
  Amplifiable DNA after treatment: completely undetectable
Bacterial samples
  Effect on the number of viable organisms: did not significantly reduce the number of viable organisms
S. epi; 5 hour H2O2 exposure, average H2O2 output 518±14 ppm, stock 3.5 × 10^6
  CONCENTRATION (S. epi in device with H2O2): NO GROWTH
S. epi; fifth experiment, 5 hour H2O2 exposure, 518±14 ppm
  Sterilization result in words: sterilized
S. epi; hydrogen peroxide gas 30 minutes, average H2O2 output 561±27 ppm, ≥25° C., stock 5.0 × 10^6, contamination believed
  CONCENTRATION (S. epi in device with H2O2): ~10^4 to 10^5 estimated
E. coli [2]; hydrogen peroxide gas 30 minutes, average H2O2 output 561±27 ppm, ≥25° C., stock 2.5 × 10^7
  CONCENTRATION (E. coli in device with H2O2): NO GROWTH
E. coli [2]; tests of FIGS. 32 and 33, 30 minutes H2O2 gas
  Sterilization result in words: completely sterilized
